Assay results from patent publication US20240352075A1, “PACAP1-23 ANALOG GLYCOPEPTIDES AND METHODS FOR PRODUCING AND USING THE SAME” (priority 2021, published 2024).
Where “and” joins values, the source holds several entries; their conditions need not be identical. Equal values may be shown once. Where a SMILES comes first, the peptide text is derived from it. Primed or numbered codes have the meaning given here. Where no end group is shown, it is not given here. [ ]: non-standard residue; d: D form. The star is where a group is joined. ξ: configuration not given here. X2 = OCC1OC(OC2C(CO)OC(*)C(O)C2O)C(O)C(O)C1O; Glc = glucose on Ser (glucosylated Ser); Lac′ = lactose, glycoside on Ser; X1 = OCC1OC(*)C(O)C(O)C1O; Nva = CCC[C@H](N)C(=O)O; ξS = NC(CO)C(=O)O; Sar = CNCC(=O)O

Columns and labels:
[1] = target: T1, PAC1 (Homo sapiens, UniProt P41586); assay: cAMP accumulation assay in CHO cells stably expressing PAC1; type: cell-based; details: for Emax: CHO
T1 construct: 3xHA (N)
T1 sequence (P41586 21-468): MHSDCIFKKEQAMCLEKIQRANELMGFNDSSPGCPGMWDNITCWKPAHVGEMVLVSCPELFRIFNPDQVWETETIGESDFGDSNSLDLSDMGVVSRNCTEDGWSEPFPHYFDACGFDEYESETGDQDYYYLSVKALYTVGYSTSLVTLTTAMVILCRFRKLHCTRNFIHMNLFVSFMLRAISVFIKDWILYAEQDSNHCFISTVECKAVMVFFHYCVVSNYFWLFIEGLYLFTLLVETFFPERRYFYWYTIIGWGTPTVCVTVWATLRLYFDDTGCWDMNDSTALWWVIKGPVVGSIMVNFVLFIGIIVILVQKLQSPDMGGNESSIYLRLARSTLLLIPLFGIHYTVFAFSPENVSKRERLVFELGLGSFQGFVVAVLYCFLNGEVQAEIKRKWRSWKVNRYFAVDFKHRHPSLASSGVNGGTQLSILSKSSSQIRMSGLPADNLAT
Procedure: Cell Culture: CHO cells stably expressing cloned PAC1, VPAC1, and VPAC2 were produced by electroporation with human PAC1/VPAC1/VPAC2 N-3×HA tag cDNA constructs (GeneCopocia). Cells were grown on 10 cm dishes in DMEM/F-12 50/50 mix w/L-glutamine & 15 mM HEPES (Corning) containing 10% heat inactivated fetal bovine serum, 100 units/mL penicillin, 100 μg/mL streptomycin, and 500 μg/mL G418 under 5% CO2 at 37° C. The cells were enriched into high expressing populations using flow cytometry, selecting the top ˜2% of expressing cells.
CAMP Accumulation Assay: At ˜80% confluence, cells were plated into 96-well plates (20.000 cells/well) and grown in the same medium and conditions as described above for 24 hrs. The cells were then serum starved for 4 hr. After a 20 min incubation at 37° C. with 500 μM 3-Isobutyl-1-methylxanthine (IBMX), serum free medium containing 500 μM IBMX and the appropriate agonists were added and then incubated for 10 min at 37° C. The reaction was terminated by removing the medium and adding 60 μL of ice-cold assay buffer (50 mM Tris-HCl pH 7.4, 100 mM NaCl, 5 mM ethylenediaminetetraacetic acid [EDTA]). Plates were sealed with boiling mats and then boiled at 95° C. for 10 min. Plates were then centrifuged at 4000 rpm, 4° C., for 10 min to remove debris. 50 μL of lysate was transferred to a 96-well plate. Lysate was incubated with ˜1 μmol 3H-CAMP (PerkinElmer), and 7 μg protein kinase A (Sigma Aldrich) with 0.05% Bovine Serum Albumin (BSA). The assay was incubated at room temperature for 1 hr. The reactions were then harvested onto GF/B filter plates (PerkinElmer) via rapid filtration by a 96-well plate Cell Harvester (Brandel) and washed 3 times with ice-cold water. Filter plates were dried, 40 μL of Microscint-PS scintillation cocktail was added to each well, and then counted in a TopCount or Microbeta2 (PerkinElmer) microplate scintillation counter.

[2] = target: T2, VPAC1 (Homo sapiens, UniProt P32241); assay: cAMP accumulation assay in CHO cells stably expressing VPAC1; type: cell-based; details: for Emax: CHO
T2 construct: 3xHA (N)
T2 sequence (P32241 31-457): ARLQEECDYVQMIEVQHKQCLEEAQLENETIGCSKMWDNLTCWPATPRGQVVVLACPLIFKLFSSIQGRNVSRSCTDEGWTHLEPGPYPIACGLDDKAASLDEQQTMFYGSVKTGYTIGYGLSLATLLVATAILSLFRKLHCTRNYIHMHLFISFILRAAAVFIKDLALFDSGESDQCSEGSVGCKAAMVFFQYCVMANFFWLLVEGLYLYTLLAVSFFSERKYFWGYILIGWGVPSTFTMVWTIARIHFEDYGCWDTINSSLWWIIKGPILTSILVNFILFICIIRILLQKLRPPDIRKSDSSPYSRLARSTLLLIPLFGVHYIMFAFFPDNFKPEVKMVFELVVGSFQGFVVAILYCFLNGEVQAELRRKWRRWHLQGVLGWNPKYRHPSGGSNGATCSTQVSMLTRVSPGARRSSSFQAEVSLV

[3] = target: T3, VPAC2 (Homo sapiens, UniProt P41587); assay: cAMP accumulation assay in CHO cells stably expressing VPAC2; type: cell-based; details: for Emax: CHO
T3 construct: 3xHA (N)
T3 sequence (P41587 24-438): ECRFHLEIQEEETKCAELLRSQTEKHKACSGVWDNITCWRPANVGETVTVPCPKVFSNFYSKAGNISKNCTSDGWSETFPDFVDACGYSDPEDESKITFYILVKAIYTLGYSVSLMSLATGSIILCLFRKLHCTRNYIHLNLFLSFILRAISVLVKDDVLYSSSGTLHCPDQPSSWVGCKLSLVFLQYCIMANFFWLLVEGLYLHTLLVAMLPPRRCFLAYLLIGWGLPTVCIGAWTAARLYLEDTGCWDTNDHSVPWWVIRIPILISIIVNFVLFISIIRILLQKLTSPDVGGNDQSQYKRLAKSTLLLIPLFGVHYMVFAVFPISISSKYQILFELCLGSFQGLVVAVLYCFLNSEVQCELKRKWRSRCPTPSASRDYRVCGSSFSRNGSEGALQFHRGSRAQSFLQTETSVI

[4] = target: T4, human VPAC2 (human, UniProt P41587 24-438); assay: cell-based or functional assay
T4 sequence (looked up): T3 sequence (P41587 24-438)

[5] = target: T5, human VPAC1 (human, UniProt P32241 31-457); assay: cell-based or functional assay
T5 sequence (looked up): T2 sequence (P32241 31-457)

[6] = target: T4, human VPAC2; assay: cell-based or functional assay; remark: listed apart in the source
[7] = target: T6, human PAC1 (human, UniProt P41586 21-468); assay: cell-based or functional assay
T6 sequence (looked up): T1 sequence (P41586 21-468)

[8] = target: T5, human VPAC1; assay: cell-based or functional assay; remark: listed apart in the source
[9] = Table 3, in vitro cAMP stimulation, NC = No Convergence (no activity)

## CCC[C@H](NC(=O)[C@H](CCC(N)=O)NC(=O)[C@H](CCCCN)NC(=O)[C@H](CCCNC(=N)N)NC(=O)[C@H](Cc1ccc(O)cc1)NC(=O)[C@H](CCCNC(=N)N)NC(=O)[C@H](CO)NC(=O)[C@H](Cc1ccc(O)cc1)NC(=O)[C@H](CO)NC(=O)[C@H](CC(=O)O)NC(=O)[C@@H](NC(=O)[C@H](Cc1ccccc1)NC(=O)[C@@H](NC(=O)CNC(=O)[C@H](CC(=O)O)NC(=O)[C@H](CO)NC(=O)[C@@H](N)Cc1c[nH]cn1)[C@@H](C)CC)[C@@H](C)O)C(=O)N[C@@H](C)C(=O)N[C@H](C(=O)N[C@@H](CCCCN)C(=O)N[C@@H](CCCCN)C(=O)N[C@@H](Cc1ccc(O)cc1)C(=O)N[C@@H](CC(C)C)C(=O)NC(COC1OC(CO)C(O)C(O)C1O)C(N)=O)C(C)C (stereo partly drawn) [CRA-DV-3023] (H-HSDGIFTDSYSRYRKQ[Nva]AVKKYL[ξS](X1)-NH2)
[1]
  Emax: 181%
[2]
  Emax: 105%
[3]; [9]
  Emax: 90%

## CCC[C@H](NC(=O)[C@H](CCC(N)=O)NC(=O)[C@H](CCCCN)NC(=O)[C@H](CCCNC(=N)N)NC(=O)[C@H](Cc1ccc(O)cc1)NC(=O)[C@H](CCCNC(=N)N)NC(=O)[C@H](CO)NC(=O)[C@H](Cc1ccc(O)cc1)NC(=O)[C@H](CO)NC(=O)[C@H](CC(=O)O)NC(=O)[C@@H](NC(=O)[C@H](Cc1ccccc1)NC(=O)[C@@H](NC(=O)CN(C)C(=O)[C@H](CC(=O)O)NC(=O)[C@H](CO)NC(=O)[C@@H](N)Cc1c[nH]cn1)[C@@H](C)CC)[C@@H](C)O)C(=O)N[C@@H](C)C(=O)N[C@H](C(=O)N[C@@H](CCCCN)C(=O)N[C@@H](CCCCN)C(=O)N[C@@H](Cc1ccc(O)cc1)C(=O)N[C@@H](CC(C)C)C(=O)NC(COC1OC(CO)C(OC2OC(CO)C(O)C(O)C2O)C(O)C1O)C(N)=O)C(C)C (stereo partly drawn) [CRA-TG-3027] (H-HSD[Sar]IFTDSYSRYRKQ[Nva]AVKKYL[ξS](X2)-NH2)
[1]
  Emax: 134%
[2]
  Emax: 90%

## CCC[C@H](NC(=O)[C@H](CCC(N)=O)NC(=O)[C@H](CCCCN)NC(=O)[C@H](CCCNC(=N)N)NC(=O)[C@H](Cc1ccc(O)cc1)NC(=O)[C@H](CCCNC(=N)N)NC(=O)[C@H](CO)NC(=O)[C@H](Cc1ccc(O)cc1)NC(=O)[C@H](CO)NC(=O)[C@H](CC(=O)O)NC(=O)[C@@H](NC(=O)[C@H](Cc1ccccc1)NC(=O)[C@@H](NC(=O)CNC(=O)[C@H](CC(=O)O)NC(=O)[C@H](CO)NC(=O)[C@@H](N)Cc1c[nH]cn1)[C@@H](C)CC)[C@@H](C)O)C(=O)N[C@@H](C)C(=O)N[C@H](C(=O)N[C@@H](CCCCN)C(=O)N[C@@H](CCCCN)C(=O)N[C@@H](Cc1ccc(O)cc1)C(=O)N[C@@H](CC(C)C)C(=O)NC(COC1OC(CO)C(OC2OC(CO)C(O)C(O)C2O)C(O)C1O)C(N)=O)C(C)C (stereo partly drawn) [CRA-TG-3025] (H-HSDGIFTDSYSRYRKQ[Nva]AVKKYL[ξS](X2)-NH2)
[1]
  Emax: 174%
[2]
  Emax: 91%
[3]
  Emax: 168%
[3]; [9]
  Emax: 118%

## CCC[C@H](NC(=O)[C@H](CCC(N)=O)NC(=O)[C@H](CCCCN)NC(=O)[C@H](CCCNC(=N)N)NC(=O)[C@H](Cc1ccc(O)cc1)NC(=O)[C@H](CCCNC(=N)N)NC(=O)[C@H](CO)NC(=O)[C@H](Cc1ccc(O)cc1)NC(=O)[C@H](CO)NC(=O)[C@H](CC(=O)O)NC(=O)[C@@H](NC(=O)[C@H](Cc1ccccc1)NC(=O)[C@@H](NC(=O)CNC(=O)[C@H](CC(=O)O)NC(=O)[C@H](CO)NC(=O)[C@@H](N)Cc1c[nH]cn1)[C@@H](C)CC)[C@@H](C)O)C(=O)N[C@@H](C)C(=O)N[C@H](C(=O)N[C@@H](CCCCN)C(=O)N[C@@H](CCCCN)C(=O)N[C@@H](Cc1ccc(O)cc1)C(=O)N[C@@H](CC(C)C)C(=O)N[C@@H](CO)C(N)=O)C(C)C [CRA-DV-3022] (H-HSDGIFTDSYSRYRKQ[Nva]AVKKYLS-NH2)
[1]
  Emax: 198%
[1]; Table 3, in vitro cAMP stimulation
  EC50: 2.2 nM
[2]
  Emax: 42% and 94%
[2]; Table 1, cAMP stimulation, CHO cells
  EC50: 5.2 nM
[3]
  Emax: 111%
[3]; [9]
  Emax: 91%
  EC50: 571 nM
[3]; Table 1, cAMP stimulation, CHO cells, NC not defined here (Table 3: No Convergence)
  EC50: 571 nM

## CCC[C@H](NC(=O)[C@H](CCC(N)=O)NC(=O)[C@H](CCCCN)NC(=O)[C@H](CCCNC(=N)N)NC(=O)[C@H](Cc1ccc(O)cc1)NC(=O)[C@H](CCCNC(=N)N)NC(=O)[C@H](CO)NC(=O)[C@H](Cc1ccc(O)cc1)NC(=O)[C@H](CO)NC(=O)[C@H](CC(=O)O)NC(=O)[C@@H](NC(=O)[C@H](Cc1ccccc1)NC(=O)[C@@H](NC(=O)CNC(=O)[C@H](CC(=O)O)NC(=O)[C@H](CO)NC(=O)[C@@H](N)Cc1c[nH]cn1)[C@@H](C)CC)[C@@H](C)O)C(=O)N[C@@H](C)C(=O)N[C@H](C(=O)N[C@@H](CCCCN)C(=O)N[C@@H](CCCCN)C(=O)N[C@@H](Cc1ccc(O)cc1)C(=O)N[C@@H](CC(C)C)C(=O)NC(COC1OC(CO)C(O)C(O)C1O)C(=O)NC(COC1OC(CO)C(O)C(O)C1O)C(N)=O)C(C)C (stereo partly drawn) [CRA-DV-3024] (H-HSDGIFTDSYSRYRKQ[Nva]AVKKYL[ξS](X1)[ξS](X1)-NH2)
[1]
  Emax: 152%
[2]
  Emax: 127%
[3]; [9]
  Emax: 130%

## CCC[C@H](NC(=O)[C@H](CCC(N)=O)NC(=O)[C@H](CCCCN)NC(=O)[C@H](CCCNC(=N)N)NC(=O)[C@H](Cc1ccc(O)cc1)NC(=O)[C@H](CCCNC(=N)N)NC(=O)[C@H](CO)NC(=O)[C@H](Cc1ccc(O)cc1)NC(=O)[C@H](CO)NC(=O)[C@H](CC(=O)O)NC(=O)[C@@H](NC(=O)[C@H](Cc1ccccc1)NC(=O)[C@@H](NC(=O)[C@H](C)NC(=O)[C@H](CC(=O)O)NC(=O)[C@H](CO)NC(=O)[C@@H](N)Cc1c[nH]cn1)[C@@H](C)CC)[C@@H](C)O)C(=O)N[C@@H](C)C(=O)N[C@H](C(=O)N[C@@H](CCCCN)C(=O)N[C@@H](CCCCN)C(=O)N[C@@H](Cc1ccc(O)cc1)C(=O)N[C@@H](CC(C)C)C(=O)NC(COC1OC(CO)C(OC2OC(CO)C(O)C(O)C2O)C(O)C1O)C(N)=O)C(C)C (stereo partly drawn) [CRA-TG-3026] (H-HSDAIFTDSYSRYRKQ[Nva]AVKKYL[ξS](X2)-NH2)
[1]
  Emax: 181%
[2]
  Emax: 95%
[3]
  Emax: 190%
[3]; [9]
  Emax: 115%

## HSDGIFTDSYSRYRKQ[Nva]AVKKYLS-NH2 (not fully specified) [CRA-DV-3022]
[4]
  cAMP stimulation Emax (Table 1, differs from Table 3): 111%
[5]
  cAMP stimulation Emax (Table 1, differs from Table 3): 42%
[6]
  cAMP stimulation EC50: 571 nM
  cAMP stimulation Emax: 91%
[7]
  cAMP stimulation EC50: 2.2 nM
  cAMP stimulation Emax: 198%
[8]
  cAMP stimulation EC50: 5.2 nM
  cAMP stimulation Emax: 94%

## HSDGIFTDSYSRYRKQ[Nva]AVKKYLS(Glc)S(Glc)-NH2 [CRA-DV-3024]
[4]
  cAMP stimulation Emax (Table 1, differs from Table 3): 128%
[5]
  cAMP stimulation Emax (Table 1, differs from Table 3): 147%
[6]
  cAMP stimulation EC50: 7370 nM
  cAMP stimulation Emax: 130%
[7]
  cAMP stimulation EC50: 1.9 nM
  cAMP stimulation Emax: 152%
[8]
  cAMP stimulation EC50: 26 nM
  cAMP stimulation Emax: 127%

## HSDGIFTDSYSRYRKQ[Nva]AVKKYLS(Lac′)-NH2 [CRA-TG-3025]
[5]
  cAMP stimulation Emax (Table 1, differs from Table 3): 118%
[7]
  cAMP stimulation EC50: 1.8 nM
[8]
  cAMP stimulation EC50: 21 nM

## HSD[Sar]IFTDSYSRYRKQ[Nva]AVKKYLS(Lac′)-NH2 [CRA-TG-3027]
[5]
  cAMP stimulation Emax (Table 1, differs from Table 3): 107%
[7]
  cAMP stimulation EC50: 67 nM
  cAMP stimulation Emax: 134%
[8]
  cAMP stimulation EC50: 195 nM
  cAMP stimulation Emax: 90%
